Test results reported in ChEMBL document CHEMBL4665865, “New series of isoxazole derivatives targeting EGFR-TK: Synthesis, molecular modeling and antitumor evaluation” (Bioorg Med Chem, 2020).

How the values were obtained:
Tubulin = assay: Inhibition of tubulin polymerization (unknown origin) relative to control; format: protein-complex assay, Homo sapiens
HepG2 [1] = assay: Induction of apoptosis in human HepG2 cells assessed as increase in Bax protein expression by Western blot analysis relative to untreated control; format: functional
HCT-116 [2] = assay: Induction of cell cycle arrest in human HCT-116 cells assessed as accumulation of cells at G2/M phase at antiproliferative IC50 by PI staining based flow cytometric analysis (reference value: 15.87%); format: functional
DNA topoisomerase 2-beta = DNA topoisomerase 2-beta (Homo sapiens, UniProt Q02880); assay: Inhibition of Topoisomerase II beta (unknown origin) relative to control
Sequence of DNA topoisomerase 2-beta (Q02880 whole entry): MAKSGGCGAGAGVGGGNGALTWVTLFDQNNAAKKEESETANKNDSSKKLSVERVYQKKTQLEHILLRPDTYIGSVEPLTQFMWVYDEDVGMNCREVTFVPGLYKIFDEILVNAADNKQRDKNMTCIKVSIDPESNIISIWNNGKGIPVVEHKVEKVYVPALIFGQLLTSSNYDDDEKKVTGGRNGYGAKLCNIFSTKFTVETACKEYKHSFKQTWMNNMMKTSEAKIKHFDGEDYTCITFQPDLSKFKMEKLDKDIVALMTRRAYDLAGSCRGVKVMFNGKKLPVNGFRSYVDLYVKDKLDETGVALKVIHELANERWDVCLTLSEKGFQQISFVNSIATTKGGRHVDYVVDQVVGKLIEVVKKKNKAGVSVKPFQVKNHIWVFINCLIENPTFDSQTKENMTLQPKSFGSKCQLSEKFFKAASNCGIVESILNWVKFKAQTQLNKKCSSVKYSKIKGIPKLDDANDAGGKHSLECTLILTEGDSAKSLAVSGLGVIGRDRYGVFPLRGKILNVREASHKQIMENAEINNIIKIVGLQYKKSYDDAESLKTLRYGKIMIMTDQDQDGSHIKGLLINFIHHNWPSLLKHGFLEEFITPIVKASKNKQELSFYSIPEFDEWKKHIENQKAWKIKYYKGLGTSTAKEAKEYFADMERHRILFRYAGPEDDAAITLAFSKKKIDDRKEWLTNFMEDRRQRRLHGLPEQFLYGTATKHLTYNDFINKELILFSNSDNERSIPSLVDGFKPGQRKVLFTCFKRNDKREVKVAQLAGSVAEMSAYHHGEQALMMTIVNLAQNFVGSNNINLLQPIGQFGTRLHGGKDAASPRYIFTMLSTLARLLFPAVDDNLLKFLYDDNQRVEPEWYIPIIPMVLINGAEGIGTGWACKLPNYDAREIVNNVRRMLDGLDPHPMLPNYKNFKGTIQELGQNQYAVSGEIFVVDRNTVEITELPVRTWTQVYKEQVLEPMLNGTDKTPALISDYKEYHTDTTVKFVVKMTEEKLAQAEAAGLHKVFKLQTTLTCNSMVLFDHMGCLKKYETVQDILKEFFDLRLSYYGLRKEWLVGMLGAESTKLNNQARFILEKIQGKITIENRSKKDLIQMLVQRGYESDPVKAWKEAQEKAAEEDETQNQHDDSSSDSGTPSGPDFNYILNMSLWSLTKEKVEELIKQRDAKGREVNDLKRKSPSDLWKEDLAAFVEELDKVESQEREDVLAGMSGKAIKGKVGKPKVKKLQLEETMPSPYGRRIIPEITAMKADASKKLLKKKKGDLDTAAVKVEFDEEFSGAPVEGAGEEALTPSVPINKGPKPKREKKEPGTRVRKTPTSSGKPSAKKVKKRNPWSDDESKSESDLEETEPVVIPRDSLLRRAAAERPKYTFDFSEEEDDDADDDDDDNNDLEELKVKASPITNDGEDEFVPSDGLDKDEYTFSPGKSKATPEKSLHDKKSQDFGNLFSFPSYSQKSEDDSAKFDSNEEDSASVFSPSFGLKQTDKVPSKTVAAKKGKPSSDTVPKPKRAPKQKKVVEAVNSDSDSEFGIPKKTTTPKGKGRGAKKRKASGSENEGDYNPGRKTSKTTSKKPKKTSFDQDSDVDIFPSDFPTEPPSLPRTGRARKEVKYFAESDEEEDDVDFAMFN

HCT-116 [3] = assay: Induction of cell cycle arrest in human HCT-116 cells assessed as accumulation of cells at S phase at antiproliferative IC50 by PI staining based flow cytometric analysis (reference value: 35.61%); format: functional
HCT-116 [4] = assay: Induction of apoptosis in human HCT-116 cells assessed as early apoptotic cells at antiproliferative IC50 incubated for 24 hrs by annexin V FITC and propidium iodide staining based flow cytometry (reference value: 0.41 %); format: functional
HCT-116 [5] = assay: Induction of cell cycle arrest in human HCT-116 cells assessed as cell debris at antiproliferative IC50 by PI staining based flow cytometric analysis (reference value: 1.42%); format: functional; details: time 24 hrs
HepG2 [6] = assay: Induction of apoptosis in human HepG2 cells assessed as decrease in Bcl-2 protein expression by Western blot analysis relative to untreated control; format: functional
HepG2 [7] = assay: Induction of cell cycle arrest in human HepG2 cells assessed as accumulation of cells at G2/M phase at antiproliferative IC50 by PI staining based flow cytometric analysis (reference value: 14.09%); format: functional
HCT-116 [8] = assay: Induction of apoptosis in human HCT-116 cells assessed as increase in caspase-3 level after 24 hrs by Western blot analysis relative to untreated control; format: functional
HepG2 [9] = assay: Induction of apoptosis in human HepG2 cells assessed as increase in caspase-3 level after 24 hrs by Western blot analysis relative to untreated control; format: functional
WISH = assay: Cytotoxicity against human WISH cells assessed as reduction in cell viability by MTT assay; format: cell-based

IC50 (Tubulin): 3.61 µM
IC50 (DNA topoisomerase 2-beta): 0.13 µM
Structure (SMILES): Cc1cc(NC2=NC(=O)/C(=C\c3c4ccccc4cc4ccccc34)S2)no1
fold change (FC) (HepG2 [1]): 4.1
Activity (HCT-116 [2]): 42.89%
Activity (HCT-116 [3]): 27.44%
Activity (HCT-116 [4]): 5.23%
Activity (HCT-116 [5]): 1.92%
fold change (FC) (HepG2 [6]): 0.56
Activity (HepG2 [7]): 36.93%
fold change (FC) (HCT-116 [8]): 14.2
fold change (FC) (HepG2 [9]): 5.4
IC50 (WISH): 53.2 µM
